Source: patent US11655216B2 (priority 2016, dated 2023)
Read-outs that look alike come from different tables or passages of the source.

Key:
[1] = biological target: T1, glutathione-S-transferase (GST) tagged LXRalpha LBD (ligand binding domain) (Homo sapiens, UniProt Q13133); experiment: biochemical
T1 construct: purchased Invitrogen pv4655
T1 sequence (Q13133 209-447 limits assumed): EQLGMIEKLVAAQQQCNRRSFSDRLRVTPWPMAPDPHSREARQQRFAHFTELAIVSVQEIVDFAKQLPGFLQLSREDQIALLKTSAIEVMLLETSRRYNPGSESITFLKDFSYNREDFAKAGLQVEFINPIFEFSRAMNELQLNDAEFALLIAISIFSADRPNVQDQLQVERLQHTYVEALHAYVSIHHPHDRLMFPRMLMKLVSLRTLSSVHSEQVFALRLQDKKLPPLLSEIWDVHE
How it was run: (§1)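 Coactivator recruitment format: receptor LBD exposed to compounds, detection via Tb-antibody/fluorescein-peptide pair, room-temperature incubation, TR-FRET signal on a filter instrument.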

[2] = biological target: T2, glutathione-S-transferase (GST) tagged LXRbeta LBD (ligand binding domain) (Homo sapiens, UniProt P55055); experiment: LanthaScreen TR-FRET Liver X Receptor Coactivator Assay, LXR beta; format: biochemical; settings: for EC50: LXR beta IP, potency (Inflection Point), compound-induced co-activator recruitment, TR-FRET; for Emax: read-out: LXR beta actiivty at max dose, efficacy (% Emax) in relation to reference dual agonist T0901317
T2 construct: purchased Invitrogen pv4658
T2 sequence (P55055 222-460 limits assumed): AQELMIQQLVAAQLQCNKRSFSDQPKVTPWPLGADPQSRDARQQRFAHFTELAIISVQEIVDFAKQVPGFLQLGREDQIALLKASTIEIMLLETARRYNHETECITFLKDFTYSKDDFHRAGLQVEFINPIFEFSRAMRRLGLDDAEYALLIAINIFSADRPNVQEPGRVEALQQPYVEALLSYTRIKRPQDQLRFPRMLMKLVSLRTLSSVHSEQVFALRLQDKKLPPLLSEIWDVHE
How it was run: as §1

[3] = LXR alpha IP, potency (Inflection Point), compound-induced co-activator recruitment, TR-FRET
[4] = read-out: LXR alpha actiivty at max dose, efficacy (% Emax) in relation to reference dual agonist T0901317
[5] = potency (Inflection Point), compound-induced co-activator recruitment, TR-FRET, read-out: LXR alpha IP

Structure (SMILES) | EC50 [1, 3] [nM] | Emax [1, 4] [%] | EC50 [2] [nM] | Emax [2] [%] | EC50 ([1]; LXR alpha IP) [nM] | Emax ([1]; read-out: LXR alpha actiivty at max dose) [%] | LXR alpha IP ([1]; potency (Inflection Point), compound-induced co-activator recruitment, TR-FRET) | EC50 [1, 5] [nM] | Emax ([1]; efficacy (% Emax) in relation to reference dual agonist T0901317, read-out: LXR alpha actiivty at max dose) [%]
O=C(c1ccc(OCCCCC2CCN(C(=O)C(O)(c3ccccc3)C(F)(F)F)CC2)cc1Cl)N1CC(F)(F)C1 (single isomer, unassigned) [Example 8-4, (R or S)-1-(4-(4-(3-chloro-4-(3,3-difluoroazetidine-1-carbonyl)phenoxy)butyl)piperidin-1-yl)-3,3,3-trifluoro-2-hydroxy-2-phenylpropan-1-one] | 48 | 18 | 12 | 60 |  |  |  |  | 
CNC(=O)c1ccc(OC[C@@H](C)CCC2CCN(C(=O)[C@@](O)(c3cccc(OC)c3)C(F)(F)F)CC2)cc1Cl (single isomer, unassigned) [Example 23-4, 2-chloro-N-methyl-4-((S or R)-2-methyl-4-(1-((S or trifluoro-2-hydroxy-2-(3-methoxyphenyl)propanoyl)piperidin-4-yl)butoxy)benzamide] | 717 | 9 | 60 | 53 |  |  |  |  | 
CN(C)C(=O)c1ccc(OCCC2CC3(CCN(C(=O)C(O)(c4ccccc4)C(F)(F)F)CC3)C2)cc1Cl (single isomer, unassigned) [Example 34-1, 2-chloro-N,N-dimethyl-4-(2-(7-((R or S)-3,3,3-trifluoro-2-hydroxy-2-phenylpropanoyl)-7-azaspiro[3.5]nonan-2-yl)ethoxy)benzamide] | 551 | 46 | 16 | 113 |  |  |  |  | 
CN(C)C(=O)c1ccc(OC2CC(CC3CCN(C(=O)[C@](O)(c4ccccc4)C(F)(F)F)CC3)C2)cc1Cl (single isomer, unassigned) [Example 37-11, (R or S)-2-chloro-N,N-dimethyl-4-(3-((1-(3,3,3-trifluoro-2-hydroxy-2-phenylpropanoyl)piperidin-4-yl)methyl)cyclobutoxy) benzamide] |  | 33 | 92 | 113 |  |  |  | 563 | 
COc1cccc(C(O)(C(=O)N2CCC(C(F)CCCOc3ccc(C(=O)N(C)C)c(Cl)c3)CC2)C(F)(F)F)c1 (single isomer, unassigned) [Example 21-1, 2-chloro-4-(4-fluoro-4-(1-((R or S)-3,3,3-trifluoro-2-hydroxy-2-(3-methoxyphenyl)propanoyl)piperidin-4-yl)butoxy)-N,N-dimethylbenzamide] |  |  | 9 | 75 |  |  |  | 422 | 27
CCOC(=O)N1CCN(C(=O)c2ccc(OCCCCC3CCN(C(=O)C(O)(c4ccccc4)C(F)(F)F)CC3)nc2Cl)CC1 (stereo not drawn) [Example 3-18, ethyl 4-(2-chloro-6-(4-(1-(3,3,3-trifluoro-2-hydroxy-2-phenylpropanoyl)piperidin-4-yl)butoxy)nicotinoyl) piperazine-l-carboxylate] | 498 | 33 | 17 | 75 |  |  |  |  | 
COc1cccc([C@@](O)(C(=O)N2CCC(CCCCOc3ccc(C(=O)N(C)C)c(C#N)n3)CC2)C(F)(F)F)c1 (single isomer, unassigned) [Example 4-2, (R or S)-2-cyano-N,N-dimethyl-6-(4-(1-(3,3,3-trifluoro-2-hydroxy-2-(3-methoxyphenyl)propanoyl)piperidin-4-yl)butoxy) nicotinamide] | 488 | 28 | 12 | 81 |  |  |  |  | 
CN(C)C(=O)c1ccc(O[C@H]2C[C@@H](CC3CCN(C(=O)[C@](O)(c4cccc(C5CC5)c4)C(F)(F)F)CC3)C2)cc1Cl (single isomer, unassigned) [Example 37-5, 2-chloro-4-((1R,3s)-3-((1-((R or S)-2-(3-cyclopropylphenyl)-3,3,3-trifluoro-2-hydroxypropanoyl)piperidin-4-yl)methyl)cyclobutoxy)-N,N-dimethylbenzamide] | 401 | 30 | 6 | 134 |  |  |  |  | 
CN(C)C(=O)c1ccc(OCCCCC2CCN(C(=O)C(O)(c3cccnc3)C(F)(F)F)CC2)nc1Cl (stereo not drawn) [Example 6-2, 2-chloro-N,N-dimethyl-6-(4-(1-(3,3,3-trifluoro-2-hydroxy-2-(pyridin-3-yl)propanoyl)piperidin-4-yl)butoxy)nicotinamide] | 1230 | 74 | 8 | 90 |  |  |  |  | 

Further lines, with some results ahead:

EC50 [1, 3] [nM] | Emax [1, 4] [%] | EC50 [2] [nM] | Emax [2] [%] | EC50 ([1]; LXR alpha IP) [nM] | Emax ([1]; read-out: LXR alpha actiivty at max dose) [%] | LXR alpha IP ([1]; potency (Inflection Point), compound-induced co-activator recruitment, TR-FRET) | Structure (SMILES) | EC50 [1, 5] [nM] | Emax ([1]; efficacy (% Emax) in relation to reference dual agonist T0901317, read-out: LXR alpha actiivty at max dose) [%]
3740 | 21 | 608 | 61 |  |  |  | CN(C)C(=O)c1ccc(OCCC2CC23CCN(C(=O)C(C)(C)c2csc(N)n2)CC3)cc1Cl (single isomer, unassigned) [Example 12-10, (R or S)-4-(2-(6-(2-(2-aminothiazol-4-yl)-2-methylpropanoyl)-6-azaspiro[2.5]octan-1-yl)ethoxy)-2-chloro-N,N-dimethylbenzamide] |  | 
1380 | 17 | 105 | 125 |  |  |  | CN(C)C(=O)c1ccc(OC[C@@H]2C[C@H]2C2CCN(C(=O)[C@](O)(c3ccccc3)C(F)(F)C(F)(F)F)CC2)cc1Cl (single isomer, unassigned) [Example 32-3, 2-chloro-N,N-dimethyl-4-(((1R,2S or 1S,2R)-2-(1-((R or S)-3,3,4,4,4-pentafluoro-2-hydroxy-2-phenylbutanoyl)piperidin-4-yl)cyclopropyl)methoxy) benzamide] |  | 
162 | 23 | 6 | 116 |  |  |  | COc1cccc([C@@](O)(C(=O)N2CCC3(CC2)C[C@@H]3CCCOc2ccc(C(=O)N(C)C)c(Cl)c2)C(F)(F)F)c1 (single isomer, unassigned) [Example 14-6, 2-chloro-N,N-dimethyl-4-(3-((S or R)-6-((R or S)-3,3,3-trifluoro-2-hydroxy-2-(3-methoxyphenyl)propanoyl)-6-azaspiro[2.5]octan-1-yl)propoxy)benzamide] |  | 
1510 | 14 | 106 | 69 |  |  |  | CN(C)C(=O)c1ccc(OCC[C@@H]2C[C@@H]2C2CCN(C(=O)c3c(F)cccc3F)CC2)cc1Cl (single isomer, unassigned) [Example 10-2, 2-chloro-4-(2-((1S,2R or 1R, 2S)-2-(1-(2,6-difluorobenzoyl)piperidin-4-yl)cyclopropyl)ethoxy)-N,N-dimethylbenzamide] |  | 
 |  | 19 | 88 | 506 | 28 |  | CN(C)C(=O)c1ccc(OCCC[C@H]2CC23CCN(C(=O)[C@](O)(c2ccccc2)C(F)(F)F)CC3)nc1Cl (single isomer, unassigned) [Example 15-1, 2-chloro-N,N-dimethyl-6-(3-((S or R)-6-((R or S)-3,3,3-trifluoro-2-hydroxy-2-phenylpropanoyl)-6-azaspiro[2.5]octan-1-yl)propoxy)nicotinamide] |  | 
 | 1 | 18 | 27 |  |  | No IP | CC1(C)CCN(C(=O)c2ccc(OCCCCC3CCN(C(=O)C(O)(c4ccccc4)C(F)(F)F)CC3)cc2Cl)C1 (single isomer, unassigned) [Example 8-5, (R or S)-1-(4-(4-(3-chloro-4-(3,3-dimethyl-pyrrolidine-1-carbonyl)phenoxy)butyl)piperidin-1-yl)-3,3,3-trifluoro-2-hydroxy-2-phenylpropan-1-one] |  | 
410 | 9 | 64 | 36 |  |  |  | O=C(c1ccc(OCCCCC2CCN(C(=O)C(O)(c3ccccc3)C(F)(F)F)CC2)cc1Cl)N1C[C@@H]2CC[C@H]1C2 (single isomer, unassigned) [Example 8-15, (R or S)-1-(4-(4-(4-((1S,4R)-2-azabicyclo[2.2.1]heptane-2-carbonyl)-3-chlorophenoxy)butyl)piperidin-1-yl)-3,3,3-trifluoro-2-hydroxy-2-phenylpropan-1-one] |  | 
268 | 25 | 26 | 90 |  |  |  | CN(C)C(=O)c1ccc(OCCC2CC3(CCN(C(=O)C(C)(C)c4ccccc4)CC3)C2)cc1Cl [Example 34-2, 2-chloro-N,N-dimethyl-4-(2-(7-(2-methyl-2-phenylpropanoyl)-7-azaspiro[3.5]nonan-2-yl)ethoxy)benzamide] |  | 
329 | 42 | 9 | 69 |  |  |  | CN(C)C(=O)c1ccc(OCC2CC3(CCN(C(=O)C(O)(c4ccccc4)C(F)(F)F)CC3)C2)cc1Cl (single isomer, unassigned) [Example 33-1, 2-chloro-N,N-dimethyl-4-((7-((R or S)-3,3,3-trifluoro-2-hydroxy-2-phenylpropanoyl)-7-azaspiro[3.5]nonan-2-yl)methoxy)benzamide] |  | 
